From patent publication US20160113900A1, “INHIBITORS OF MITOCHONDRIAL STAT3 AND USES THEREOF IN MODULATION OF MAST CELL EXOCYTOSIS” (Yissum Research Development Company of the Hebrew …, priority 2014, published 2016)

How the values were obtained:
RBL cells = test: ATP determination (ATPLite luminescence) in RBL cells; assay type: cell-based, rat; settings: RBL cells, 60 μM Stattic, 20 min
Protocol: RBL-2H3 cells were maintained in RPMI 1640 medium as previously described1. Bone marrow was isolated from 5-6 week-old mice, and BMMC were cultured in RPMI medium supplemented with 20 ng/ml interleukin-3 (IL-3) and 20 ng/ml SCF as previously described2, 3. Cells were generally grown for a minimum of 4 weeks and used when >90% of the population expressed FcεRI. BMMC and RBL cells were sensitized first with anti-DNP IgE monoclonal antibody (SPE-7; Sigma-Aldrich Corp.) and then challenged with DNP-BSA (Sigma-Aldrich Corp.). IgE antibody was centrifuged (18,000 g, 5 min) before use to remove aggregates. […] For glycolysis elimination cells were maintained in glucose-free RPMI supplemented with 10% dialyzed fetal calf serum and 5 mM galactose.
ATP levels were measured using the ATPLite luminescence-based assay according to the manufacturer's instructions (Perkin Elmer, Waltham, Mass., USA).

caspase3 = test: Western blot of caspase3 / cleaved caspase3 (apoptosis) in RBL cells; assay type: cell-based, rat; settings: activated RBL cells, 60 μM Stattic
Protocol: RBL cells and mitochondrial pellets were lysed by the addition of lysis buffer (50 mM Tris-HCl pH 7.4, 1% Nonidet P-40, 0.25% Na-deoxycholate, 150 mM NaCl, 1 mM EDTA, 1 mM PMSF) supplemented with 15 μl protease inhibitor (Sigma-Aldrich). Cells and mitochondria were vortexed and incubated on ice for 15 min. The lysates were then centrifuged at 14,000 g for 15 min and pellets were discarded. The protein concentration of each sample was determined using Bradford Reagent (Sigma-Aldrich). Proteins were resolved by 10-15% SDS-PAGE under reducing conditions and transferred to polyvinylidene difluoride membranes (Millipore Billerica, Ma). The membranes were incubated in 5% fat-free milk and TBST (10 mM Tris-HCl, pH 7.4, 150 mM NaCl, 0.1% Tween 20) for 1 h and then in 5% BSA and TBST containing various dilutions of primary Abs for 18 h at 4° C. The membranes were washed three times with TBST for 5 mM before and after each incubation with secondary Ab. The proteins were detected with the appropriate secondary Ab (1 h; room temperature) coupled to HRP-conjugated goat anti-rabbit or anti-mouse Ab and visualized by chemiluminescence according to the manufacturer's instructions (Pierce).

plasma histamine = test: In vivo histamine release assay, passive systemic IgE-mediated anaphylaxis model
Protocol: C3H 6-7 week male and female WT mice were purchased from Jackson Lab (Cambridge, Mass., USA), mice were fed a regular diet and with drinking water ad libitum. Experiments were approved by The Hebrew University Ethical Committee for Animal Experimentation.
WT C3H mice were sensitized with 3 μg murine IgE anti-DNP mAb SPE-7 by means of intravenous injection in the tail vein. Twenty-four hours later, mice were treated with 40 mg/kg of static dissolved in corn oil or corn oil alone for 2.5 hours, then mice were challenged with i.v. injection of DNP-BSA (250 μg per mouse). 100 μl of blood was collected immediately and added to an equal volume of pre-cold Alsever's Solution. Blood was centrifuged 2000 g for […] and plasma supernatant was collected. Plasma histamine levels were determined by using competitive ELISA (IBL International Gmbh, Hamburg, Germany).
STAT3's role in vivo was investigated by evaluating the response to allergic stimulation in Stattic-treated mice. The passive systemic IgE-mediated anaphylaxis model was used. Mice were injected (i.v.) with IgE anti-DNP. Twenty four hours later they were injected (i.p.) with Stattic (80 mg/kg) or corn oil which was used as control. Three and a half hours later the mice were challenged with DNP-BSA for 1.5 minutes. Plasma was collected, and histamine levels were measured by competitive ELISA. Histamine secretion in Stattic-treated mice was 43% less than that in control mice (FIG. 17, p<0.05).
Mitocur-1/3 effectiveness in vivo was investigated by evaluating the response to allergic stimulation in Mitocur-1/3-treated mice. The passive systemic IgE-mediated anaphylaxis model was used. Mice were injected (i.v.) with IgE anti-DNP. Twenty four hours later they were injected (i.p.) with Mitocur-1 (80 mg/kg) and Mitocur-3 (40 mg/kg). Corn oil was used as control. Three and a half hours later the mice were challenged with DNP-BSA for 1.5 minutes. Plasma was collected, and histamine levels were measured by competitive ELISA. Histamine secretion in Mitocur-1-treated mice was 35% less than that in control mice (FIG. 22A, p<0.05).

Question: For O=[N+]([O-])c1ccc2c(c1)S(=O)(=O)C=C2 [Stattic, 6-Nitrobenzo[b]thiophene 1,1-dioxide, reference compound], which “reduction in ATP levels” value (RBL cells) is on record?
Answer: 72.0±9.0%

Question: And the “caspase3 levels (apoptosis)” value (caspase3)?
Answer: no change

Question: What about the “histamine secretion less than in control mice” value (plasma histamine; Stattic 80 mg/kg i.p., 3.5 h before DNP-BSA challenge) of the same compound?
Answer: 43%

Question: And the “decrease in histamine secretion” value (plasma histamine; mice, Stattic 40 mg/kg, after two and a half hours (data not shown))?
Answer: 32.4%
